Test results published in patent publication US20230069963A1, “PYRAZOLO[1,5-A]PYRIMIDINE MACROCYCLIC COMPOUND” (priority 2018, published 2023).
Structures can show the parent of a compound that is named as a salt.

What follows are compounds tested on RSV ATCC VR-1540 (A2) (assay: microbe, parasite or virus in culture). Conditions: human respiratory syncytial virus, HEp-2, 96 h; Hep2 cells, incubated for 4 days, CPE detected with XTT assay (absorbance 450 nm); read-out: EC50 (nmol/L) against RSV A2 strain.
Type: cell-based

Structure (SMILES) | EC50 [nmol/L]
CN1CCNC(C(F)(F)F)COc2ccc(Cl)cc2C(=O)N2CCCCC2c2cc3nc(N4CC(N)C4)cc1n3n2 (single isomer, unassigned) [Example 338] | 2.37
CCC1c2cc3nc(N4CCC(N)C4)cc(n3n2)N(C)CCCCCOc2ccc(C)cc2C(=O)N1C (stereo in doubt) [Example 230, (18S)-3-[(3S)-3-aminopyrrolidin-1-yl]-18-ethyl-5,14,17-trimethyl-5,6,7,8,9,10,17,18-octahydro-16H-19,1-(metheno)pyrimido[6,1-h][1,7,9,10,13]benzoxatetraazacyclohexadecin-16-one] | 11.8
CN1CCNC(=O)COc2ccc(F)cc2C(=O)N2CCCC[C@H]2c2cc3nc(N4CC(O)C4)cc1n3n2 [Example 3, (18aS)-2-fluoro-13-(3-hydroxyazetidin-1-yl)-J 1-methyl-8,9,10,11,19,20,21,22-octahydro-18aH,24H-18,15-(metheno)pyrido[2,1-l]pyrimido[6,1-h][1,4,7,9,10,13]benzoxapentaazacyclohexadecine-7,24(6H)-dione] | ~0.81
CN1CCNC(=O)COc2ccc(F)cc2C(=O)N2CCCC[C@H]2c2cc3nc(N4CC(N)C4)cc1n3n2 [Example 4, (18aS)-13-(3-aminoazetidin-1-yl)-2-fluoro-11-methyl-8,9,10,11,19,20,21,22-octahydro-18aH,24H-18,15-(metheno)pyrido[2,1-l]pyrimido[6,1-h][1,4,7,9,10,13]benzoxapentaazacyclohexadecine-7,24(6H)-dione] | 2.71
CNC1CN(c2cc3n4nc(cc4n2)[C@@H]2CCCCN2C(=O)c2cc(F)ccc2OCC(=O)NCCN3C)C1 [Example 5, (18aS)-2-fluoro-11-methyl-13-[3-(methylamino)azetidin-1-yl]-8,9,10,11,19,20,21,22-octahydro-18aH,24H-18,15-(metheno)pyrido[2,1-l]pyrimido[6,1-h][1,4,7,9,10,13]benzoxapentaazacyclohexadecine-7,24(6H)-dione] | 7.02
CN1CCN(C)c2cc(N3CC(N)C3)nc3cc(nn23)[C@@H]2CCCCN2C(=O)c2cc(F)ccc2OCC1=O [Example 8, (18aS)-13-(3-aminoazetidin-1-yl)-2-fluoro-8,11-dimethyl-8,9,10,11,19,20,21,22-octahydro-18aH,24H-18,15-(metheno)pyrido[2,1-l]pyrimido[6,1-h][1,4,7,9,10,13]benzoxapentaazacyclohexadecine-7,24(6H)-dione] | 6.3
CCN1CCN(C)c2cc(N3CC(N)C3)nc3cc(nn23)[C@@H]2CCCCN2C(=O)c2cc(F)ccc2OCC1=O [Example 9, (18aS)-13-(3-aminoazetidin-1-yl)-8-ethyl-2-fluoro-11-methyl-8,9,10,11,19,20,21,22-octahydro-18aH,24H-18,15-(metheno)pyrido[2,1-l]pyrimido[6,1-h][1,4,7,9,10,13]benzoxapentaazacyclohexadecine-7,24(6H)-dione] | 6.34
CN1CC(C)(C)NC(=O)COc2ccc(F)cc2C(=O)N2CCCC[C@H]2c2cc3nc(N4CC(N)C4)cc1n3n2 [Example 11, (18aS)-13-(3-aminoazetidin-1-yl)-2-fluoro-9,9,11-trimethyl-8,9,10,11,19,20,21,22-octahydro-18aH,24H-18,15-(metheno)pyrido[2,1-l]pyrimido[6,1-h][1,4,7,9,10,13]benzoxapentaazacyclohexadecine-7,24(6H)-dione] | 1.56
CC1Oc2ccc(F)cc2C(=O)N2CCCCC2c2cc3nc(N4CC(N)C4)cc(n3n2)N(C)CCNC1=O [Example 12, (18aS)-13-(3-aminoazetidin-1-yl)-2-fluoro-6,11-dimethyl-8,9,10,11,19,20,21,22-octahydro-18aH,24H-18,15-(metheno)pyrido[2,1-l]pyrimido[6,1-h][1,4,7,9,10,13]benzoxapentaazacyclohexadecine-7,24(6H)-dione] | ~2
NC1CN(c2cc3n4nc(cc4n2)[C@@H]2CCCCN2C(=O)c2cc(F)ccc2OCC(=O)NCCN3C2CC2)C1 [Example 14, (18aS)-13-(3-aminoazetidin-1-yl)-11-cyclopropyl-2-fluoro-8,9,10,11,19,20,21,22-octahydro-18aH,24H-18,15-(metheno)pyrido[2,1-l]pyrimido[6,1-h][1,4,7,9,10,13]benzoxapentaazacyclohexadecine-7,24(6H)-dione] | 2.31
COc1cc2n3nc(cc3n1)[C@@H]1CCCCN1C(=O)c1cc(F)ccc1OCC(=O)NCCN2C [Example 20, (18aS)-2-fluoro-I 3-methoxy-11-methyl-8,9,10,11,19,20,21,22-octahydro-18aH,24H-18,15-(metheno)pyrido[2,1-l]pyrimido[6,1-h][1,4,7,9,10,13]benzoxapentaazacyclohexadecine-7,24(6H)-dione] | 1.26
CN1CCNC(=O)COc2ccc(F)cc2C(=O)N2CCCC[C@H]2c2cc3nc(CN)cc1n3n2 [Example 25, (18aS)-13-(aminomethyl)-2-fluoro-11-methyl-8,9,10,11,19,20,21,22-octahydro-18aH,24H-18,15-(metheno)pyrido[2,1-l]pyrimido[6,1-h][1,4,7,9,10,13]benzoxapentaazacyclohexadecine-7,24(6H)-dione] | ~14
CCc1ccc2c(c1)C(=O)N1CCCC[C@H]1c1cc3nc(OCCN)cc(n3n1)N(C)CCNC(=O)CO2 [Example 50, (18aS)-13-(2-aminoethoxy)-2-ethyl-1-methyl-8,9,10,11,19,20,21,22-octahydro-18aH,24H-18,15-(metheno)pyrido[2,1-l]pyrimido[6,1-h][1,4,7,9,10,13]benzoxapentaazacyclohexadecine-7,24(6H)-dione] | 2.18
COc1ccc2c(c1)C(=O)N1CCCC[C@H]1c1cc3nc(N4CCC4)cc(n3n1)N(C)CCNC(=O)CO2 [Example 51, (18aS)-13-(azetidin-1-yl)-2-methoxy-11-methyl-8,9,10,11,19,20,21,22-octahydro-18aH,24H-18,15-(metheno)pyrido[2,1-l]pyrimido[6,1-h][1,4,7,9,10,13]benzoxapentaazacyclohexadecine-7,24(6H)-dione] | 1.21
CN1CCNC(=O)COc2ccc(C(C)(F)F)cc2C(=O)N2CCCC[C@H]2c2cc3nc(N4CCC4)cc1n3n2 [Example 54, (18aS)-13-(azetidin-1-yl)-2-(1,1-difluoroethyl)-11-methyl-8,9,10,11,19,20,21,22-octahydro-18aH,24H-18,15-(metheno)pyrido[2,1-l]pyrimido[6,1-h][1,4,7,9,10,13]benzoxapentaazacyclohexadecine-7,24(6H)-dione] | 3.2
Cc1c(N2CC(N)C2)nc2cc3nn2c1N(C)CCNC(=O)COc1ccc(F)cc1C(=O)N1CCCC[C@@H]31 [Example 61, (18aS)-13-(3-aminoazetidin-1-yl)-2-fluoro-11,12-dimethyl-8,9,10,11,19,20,21,22-octahydro-18aH,24H-18,15-(metheno)pyrido[2,1-l]pyrimido[6,1-h][1,4,7,9,10,13]benzoxapentaazacyclohexadecine-7,24(6H)-dione] | 1.77
Cc1c(N2CCC2)nc2cc3nn2c1N(C)CCN(C)C(=O)COc1ccc(F)cc1C(=O)N1CCCC[C@@H]31 [Example 63, (18aS)-13-(azetidin-1-yl)-2-fluoro-8,11,12-trimethyl-8,9,10,11,19,20,21,22-octahydro-18aH, 24H-18,15-(metheno)pyrido[2,1-l]pyrimido[6,1-h][1,4,7,9,10,13]benzoxapentaazacyclohexadecine-7,24(6H)-dione] | 2.49
Cc1c(CCCN)nc2cc3nn2c1N(C)CCNC(=O)COc1ccc(Cl)cc1C(=O)N1CCCC[C@@H]31 [Example 75, (18aS)-13-(3-aminopropyl)-2-chloro-11,12-dimethyl-8,9,10,11,19,20,21,22-octahydro-18aH, 24H-18,15-(metheno)pyrido[2,1-l]pyrimido[6,1-h][1,4,7,9,10,13]benzoxapentaazacyclohexadecine-7,24 (6H)-dione] | 1
Cc1c(CCCCN)nc2cc3nn2c1N(C)CCNC(=O)COc1ccc(Cl)cc1C(=O)N1CCCC[C@@H]31 [Example 78, (18aS)-13-(4-aminobutyl)-2-chloro-11,12-dimethyl-8,9,10,11,19,20,21,22-octahydro-18aH,24H-18,15-(metheno)pyrido[2,1-l]pyrimido[6,1-h][1,4,7,9,10,13]benzoxapentaazacyclohexadecine-7,24(6H)-dione] | 1.7
CN1CCNC(=O)COc2ccc(Cl)cc2C(=O)N2CCCCC2c2cc3nc(N4CC[C@H](N)C4)c(F)c1n3n2 (stereo partly drawn) [Example 87, (18aS)-13-[(3S)-3-aminopyrrolidin-1-yl]-2-chloro-12-fluoro-11-methyl-8,9,10,11,19,20,21,22-octahydro-18aH,24H-18,15-(metheno)pyrido[2,1-l]pyrimido[6,1-h][1,4,7,9,10,13]benzoxapentaazacyclohexadecine-7,24(6H)-dione hydrochloride] | 3.77
[2H]C([2H])([2H])N1CCNC(=O)COc2ccc(F)cc2C(=O)N2CCCC[C@H]2c2cc3nc(C4CC4)cc1n3n2 [Example 94, (18aS)-13-cyclopropyl-2-fluoro-11-trideuteriomethyl-8,9,10,11,19,20,21,22-octahydro-18aH, 24H-18,15-(metheno)pyrido[2,1-l]pyrimido[6,1-h][1,4,7,9,10,13]benzoxapentaazacyclohexadecine-7,24(6H)-dione] | 0.207
CN1CCNC(=O)COc2ccc(I)cc2C(=O)N2CCCC[C@H]2c2cc3nc(C4CC4)cc1n3n2 [Example 97, (18aS)-13-cyclopropyl-2-iodo-1 l-methyl-8,9,10,11,19,20,21,22-octahydro-18aH,24H-18,15-(metheno)pyrido[2,1l-]pyrimido[6,1-h][1,4,7,9,10,13]benzoxapentaazacyclohexadecine-7,24(6H)-dione] | 0.76
CN1CCNC(=O)COc2ccc(C3CC3)cc2C(=O)N2CCCC[C@H]2c2cc3nc(C4CC4)cc1n3n2 [Example 99, (18aS)-2,13-dicyclopropyl-11-methyl-8,9,10,11,19,20,21,22-octahydro-18aH,24H-18,15-(metheno)pyrido[2,1-l]pyrimido[6,1-h][1,4,7,9,10,13]benzoxapentaazacyclohexadecine-7,24(6H)-dione] | 0.571
